These results are taken from US20230032020A1, “SMALL-MOLECULE COVALENT INHIBITION OF RAL GTPASES” (THE TRUSTEES OF INDIANA UNIVERSITY, priority 2019, published 2023).

As a reminder, the IC50 is the concentration that gives 50% inhibition.

The target of one data set is T1, RalB (Homo sapiens, UniProt P11234).
T1 construct: made in house; host or cells: E. coli BL21(DE3)
T1 sequence (P11234 12-185): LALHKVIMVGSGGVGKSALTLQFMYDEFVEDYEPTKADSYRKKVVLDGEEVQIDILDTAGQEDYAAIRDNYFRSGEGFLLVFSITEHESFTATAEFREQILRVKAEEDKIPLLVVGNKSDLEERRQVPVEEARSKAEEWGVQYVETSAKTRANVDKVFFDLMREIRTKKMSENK
The experiment in a line: Rgl2-mediated guanine nucleotide exchange assay (BODIPY-FL-GDP fluorescence), RalB wild-type. The format is biochemical. The following applies: for improvement in IC50 at 24 h compared to Compound 1: RalB WT. On the procedure: Fragment-based screening using a library of 89 sulfonyl fluoride compounds was carried out to explore this possibility. A fluorescence-based guanine nucleotide exchange assay was used to measure inhibition of Rgl2-mediated exchange of Ral-bound GDP with fluorescently-labelled boron-dipyrromethene fluorescent GDP (BODIPY-FL-GDP). The increase in fluorescence intensity of the BODIPY-FL group is measured at 30 s intervals.
(§1) A concentration-dependent exchange study then was carried out to obtain the concentration of compound required for 50% inhibition of Rgl2-mediated exchange, as illustrated in FIG. 1D. This was done by incubating RalB with varying concentrations of Compound 1 for 24 hours at a temperature of 4° C., prior to the initiation of nucleotide exchange by the addition of Rgl2 and BODIPY-FL-GDP. The rate constant was calculated by fitting a 3-parameter exponential function for each measurement. To determine percent inhibition, the fitting was also done for control DMSO samples and samples without Rgl2.
(§2) Exchange Assay: 10 μL of RalB (2 μM), RalA (2 μM), and Ras (0.8 μM) in an exchange assay buffer (100 mM NaCl, 10 mM MgCl2, 20 mM Tris pH 8, 0.01% IGEPAL) were added to a 384-well, black, round bottom, low volume, polystyrene plate (Corning, Corning, N.Y., Catalog Number: 4515) and incubated with 2 μL of varying concentrations of compounds in the exchange assay buffer supplemented with 20% v/v DMSO for 24 h (unless otherwise specified) at 4° C. After the incubation, 5 μL of RGL2 (1 μM), SOS (0.4 μM) or buffer was added. Finally, 3 μL of Bodipy-FL-GDP (1.67 μM for RalA/B, 1.0 μM for Ras) was added and the fluorescence was read immediately on an Envision Multilabel Plate Reader (PerkinElmer, Waltham, Mass.) using a filter set with excitation and emission wavelengths of 485 and 535 nm, respectively, for 40 min at 30 sec intervals.
(§3) The fluorescence increase over time was fitted to an exponential function:
(§4) Fluorescence Intensity=Initial Fluorescence+Extent of binding (1−e^−Rate×Time)
(§5) The rate constant of the exchange was calculated by fitting experimental values for Fluorescence Intensity and corresponding Time. The Initial Fluorescence was estimated from the initial reading of the fluorescence intensity from the experimental control sample without guanine exchange factor (GEF). The Extent of binding is the difference between the maximal fluorescence intensity of the DMSO control sample versus the initial fluorescence recorded for the No GEF control sample.
Percent Inhibition and compound concentration are experimental values.

The target of another data set is T2, RalB Tyr82Phe mutant (Homo sapiens, UniProt P11234, Y82F).
T2 construct: made in house; host or cells: E. coli BL21(DE3)
T2 sequence (P11234 12-185 Y82F): T1 sequence (P11234 12-185) with Y71F
The experiment in a line: Rgl2-mediated guanine nucleotide exchange assay, RalB Tyr82Phe mutant. The format is biochemical. The procedure: as §1, with “To confirm that inhibition of RalB exchange by Rgl2 was due to covalent bond formation at Tyr-82, the nucleotide exchange study was repeated using RalB Tyr82Phe mutant. […] A” for “A”
as §2, §3, §4, §5
Percent Inhibition and compound concentration are experimental values. Maximum inhibition is set at 100 percent as no plateau were achieved. Minimum inhibition value was data-dependent and were mostly found to be near 0 percent. Due to the fact that the compounds were covalent inhibitors and not classical reversible inhibitors, Hillslope value was not constrained.

Data set [1] has as its system Pa03C pancreatic cancer cell. The experiment in a line: Pa03C pancreatic cancer cell growth in 3-D co-culture with fibroblasts. It is filed as cell-based. The settings on record: relative to media or DMSO.
Data set [2] in a line: Compound stability assay in buffer. It is filed as physicochemical. The procedure: Compound Stability Assay. 200 μM Compound 1 was incubated in a buffer containing 20 mM Tris pH 8.0, 100 mM NaCl, 10 mM MgCl2 at 4° C. for varying amounts time. After the incubation, the samples were centrifuged at 20,000×g for 10 min to remove precipitants prior to being injected into an Agilent EclipsePlus C18 RRHD column (Agilent, Santa Clara, Calif.) on an Agilent 1200 liquid chromatography system (Agilent, Santa Clara, Calif.), using a linear gradient from 100% Buffer A (H2O with 0.1% Formic Acid) to 70% Buffer B (acetonitrile with 0.1% Formic Acid), and the masses were detected on an Agilent 6520 Accurate Mass Q-TOF.

The target in another data set is T3, RalA (Homo sapiens, UniProt P11233).
T3 construct: made in house; host or cells: E. coli BL21(DE3)
T3 sequence (P11233 1-178): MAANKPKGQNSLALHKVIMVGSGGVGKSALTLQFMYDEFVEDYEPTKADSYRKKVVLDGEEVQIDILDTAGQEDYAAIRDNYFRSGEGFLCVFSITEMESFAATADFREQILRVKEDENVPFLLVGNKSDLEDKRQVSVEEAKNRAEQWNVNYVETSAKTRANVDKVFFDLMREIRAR
The experiment in a line: Rgl2-mediated guanine nucleotide exchange assay, RalA. The format is biochemical. The settings on record: concentration not given. On the procedure:
To further probe the contribution of individual amino acids within the binding site of Compound 1, the effect of the compound on the rate of nucleotide exchange was tested against two RalB mutants, Ser85Ala and Thr69Ala.
as §2, §3, §4
The rate constant of the exchange was calculated by fitting experimental values for Fluorescence Intensity and corresponding Time. […]

[3] abbreviates: IC50 at 24 h (μM) RalB WT, 24 h incubation at 4° C.

Substitutions are numbered along the chain they refer to. Where two headings read alike, the source gives them in different places.

On to `COc1ccc(Cl)c(NS(=O)(=O)c2ccc(S(=O)(=O)F)cc2)n1` [Compound 23], for which, on RalB (setting [3]), half-maximal inhibition (IC50) was put at 127 ± 11.7 µM.

As to `O=S(=O)(F)c1ccc(S(=O)(=O)Nc2cccc(F)n2)cc1` [Compound 6], inhibition against RalB (setting [3]) was half-maximal at 51.5 ± 5.2 µM (IC50).

For the compound `CCc1ccc(NS(=O)(=O)c2ccc(S(=O)(=O)F)cc2)cn1` [Compound 13], the IC50 on RalB (setting [3]) amounted to 164 ± 26 µM.

For `COc1ccc(NS(=O)(=O)c2ccc(S(=O)(=O)F)cc2)cc1` [Compound 9], the IC50 at RalB (setting [3]) is 60.3 ± 3 µM; at RalB Tyr82Phe mutant it was 100 ± 11.1 µM.

Take `COc1cc(Cl)nc(NS(=O)(=O)c2ccc(S(=O)(=O)F)cc2)c1` [Compound 21]: the half-inhibitory concentration (IC50) at RalB (setting [3]) stood at 24 ± 1 µM; on RalB Tyr82Phe mutant it was 138 ± 34.2 µM.

As for `O=S(=O)(F)c1ccc(S(=O)(=O)Nc2cccnc2O)cc1` [Compound 3], the concentration for half-maximal inhibition (IC50) at RalB (setting [3]) was determined as 17 ± 7.7 µM; on RalB Tyr82Phe mutant it was 79.3 ± 19 µM.

Regarding `CS(=O)(=O)c1ccc(NS(=O)(=O)c2ccc(S(=O)(=O)F)cc2)cn1` [Compound 10], the IC50 was found to be 147 ± 42 µM against RalB (setting [3]) and 238 ± 55.4 µM at RalB Tyr82Phe mutant.

Regarding `COc1ncccc1NS(=O)(=O)c1ccc(S(=O)(=O)F)cc1` [Compound 2], the IC50 against RalB (setting [3]) was 23.1 ± 6.8 µM. Also, at RalB, the “improvement in IC50 at 24 h compared to Compound 1” value was found to be 2 fold. In addition, the “IC50 at 24 h (μM) RalB Tyr82Phe” value at RalB Tyr82Phe mutant (24 h incubation at 4° C., NI = No Inhibition) is reported as “no inhibition”.

Take `CCc1cncc(NS(=O)(=O)c2ccc(S(=O)(=O)F)cc2)c1` [Compound 14]: the 50% inhibitory concentration (IC50) was 91.4 ± 2.9 µM against RalB (setting [3]) and 167 ± 8.7 µM against RalB Tyr82Phe mutant.

On to `COc1cc(F)cc(NS(=O)(=O)c2ccc(S(=O)(=O)F)c3c2OCCO3)c1` [SOF-531], for which, in data set [1], the “inhibition of Pa03C pancreatic cancer cell growth” value is given as “concentration-dependent inhibition”.

Take `O=S(=O)(F)c1ccc(S(=O)(=O)Nc2ncccc2Cl)cc1` [Compound 4]: the half-maximal inhibitory concentration (IC50) was 41.7 ± 8.5 µM on RalB (setting [3]) and 215 ± 84.5 µM at RalB Tyr82Phe mutant.

Turning to `COc1cncc(NS(=O)(=O)c2ccc(S(=O)(=O)F)cc2)c1` [Compound 1], the IC50 against RalB (IC50 at 6 h, Rgl2-mediated exchange of RalB, 6 h incubation at 4° C.) is 153 ± 29.9 µM; on RalB (setting [3]) it was 49.5 ± 2.3 µM; at RalB Tyr82Phe mutant (read-out: IC50 at 24 h (μM) RalB Tyr82Phe, 24 h incubation at 4° C., NI = No Inhibition) it was over 100 µM.

As for `CC(C)Oc1cncc(NS(=O)(=O)c2ccc(S(=O)(=O)F)cc2)c1` [Compound 16], the figures for the half-inhibitory concentration (IC50) against RalB (setting [3]) and against RalB Tyr82Phe mutant were 79.5 ± 2.3 µM and 333 ± 31 µM, respectively.

For the compound `COc1ncccc1NS(=O)(=O)c1ccc(S(=O)(=O)F)c2c1CCCC2` [SOF-371], the “stability relative to Compound 1” value in data set [2] was “higher stability than Compound 1”. The “inhibition of RalB exchange” value at RalB (24 h incubation at 4° C.) is “inhibits RalA and Ral B exchange”. The “inhibition of RalA exchange” value against RalA is “inhibits RalA and Ral B exchange”. Besides, the “inhibition of Y82F” value against RalB Tyr82Phe mutant (24 h incubation at 4° C.) is given as “inhibits Y82F”.

With `COc1cc(NS(=O)(=O)c2ccc(S(=O)(=O)F)cc2)ccn1` [Compound 12], at RalB (setting [3]), it took 146 ± 14.2 µM to reach half-maximal inhibition (IC50).

With `CCOc1cncc(NS(=O)(=O)c2ccc(S(=O)(=O)F)cc2)c1` [Compound 15], the 50% inhibitory concentration (IC50) against RalB (setting [3]) turned out to be 85.5 ± 7.9 µM; on RalB Tyr82Phe mutant, 235 ± 167 µM.

For the compound `COc1cccc(NS(=O)(=O)c2ccc(S(=O)(=O)F)cc2)c1` [Compound 11], the IC50 against RalB (setting [3]) turned out to be 26 ± 4.6 µM; on RalB Tyr82Phe mutant it was 164 ± 42.3 µM.

With `O=S(=O)(F)c1ccc(S(=O)(=O)Nc2cccc(Cl)n2)cc1` [Compound 5], the 50% inhibitory concentration (IC50) on RalB (setting [3]) is 24.4 ± 4.9 µM. In addition, at RalB, the “improvement in IC50 at 24 h compared to Compound 1” value was 2 fold.

As to `COc1cccc(NS(=O)(=O)c2ccc(S(=O)(=O)F)cc2)n1` [Compound 22], the IC50 on RalB (setting [3]) came to 64 ± 4.1 µM.

As to `O=S(=O)(F)c1ccc(S(=O)(=O)Nc2cncc(Cl)n2)cc1` [Compound 7], on RalB (setting [3]), it took 49.4 ± 3.5 µM to reach half-maximal inhibition (IC50).
